Patent publication US10526287B2, “LSD1 inhibitors and uses thereof” (Constellation Pharmaceuticals, Inc., priority 2015, dated 2020)
Where a name gives a salt, the structure may show the parent alone.

The compounds below were run against LSD1 (Homo sapiens, UniProt O60341) (assay: Biochemical assay for LSD1 activity (LSD1 demethylase TR-FRET)). Details: Table 5; biotinylated H3K4me1 peptide, 50 minutes at room temperature, TR-FRET; read-out: LSD1_Pep_TR-FRET_1.0 (IC50 T50).

IC50 [µM]	SMILES
0.1 to 1	F/C(=C\c1ccccc1)C1CC1NCC1CCNCC1 (racemic) [Compound 108, Racemic 2-((Z)-1-fluoro-2-phenylvinyl)-N-(piperidin-4-ylmethyl)cyclopropanamine Dihydrochloride]

Same assay, conditions: Table 6; biotinylated H3K4me1 peptide, 50 minutes at room temperature, TR-FRET; read-out: LSD1_Pep_TR-FRET_1.0 (IC50 T50)

SMILES	IC50 [µM]
CC/C(=C\c1ccccc1)[C@@H]1C[C@H]1NCC1CCN(Cc2ccc(C(=O)OC(C)(C)C)cc2)CC1 (racemic) [Compound 127]	0.1 to 1
CC/C(=C\c1ccccc1)[C@@H]1C[C@H]1NC1CCN(Cc2ccc(C(=O)O)cc2)CC1 (racemic) [Compound 128, 4-((4-(((trans)-2-((E)-1-phenylbut-1-en-2-yl)cyclopropyl)amino)piperidin-1-yl)methyl)benzoic acid bis-trifluoroacetic acid salt]	< 0.1
C/C(=C\c1ccccc1)[C@@H]1C[C@H]1NC1CCN(Cc2ccc[nH]c2=O)CC1 (racemic) [Compound 134, 3-((4-(((trans)-2-((E)-1-phenylprop-1-en-2-yl)cyclopropyl)amino)piperidin-1-yl)methyl)pyridin-2(1H)-one bis(2,2,2-trifluoroacetate)]	< 0.1
C/C(=C\c1ccccc1)[C@@H]1C[C@H]1N[C@H]1CC[C@H](NCCCC(=O)O)CC1 (racemic) [Compound 164, 4-(((trans)-4-(((trans)-2-((E)-1-phenylprop-1-en-2-yl)cyclopropyl)amino)cyclohexyl)amino)butanoic Acid bis(trifluoroacetic Acid) Salt]	< 0.1
C/C(=C\c1ccccc1)[C@@H]1C[C@H]1N[C@H]1CC[C@@H](NCCCC(=O)O)CC1 (racemic) [Compound 165, 4-(((cis)-4-(((trans)-2-((E)-1-phenylprop-1-en-2-yl)cyclopropyl)amino)cyclohexyl)amino)butanoic Acid bis(trifluoroacetic Acid) Salt]	< 0.1
CC/C(=C\c1ccccc1)[C@@H]1C[C@H]1N[C@H]1CC[C@@H](NCc2ccc(C(=O)O)cc2)CC1 (racemic) [Compound 176, 4-((((trans)-4-(((trans)-2-((E)-1-phenylbut-1-en-2-yl)cyclopropyl)amino)cyclohexyl)amino)methyl)benzoic Acid Dihydrochloride]	< 0.1
CC(C)/C(=C\c1ccccc1)[C@H]1C[C@@H]1N[C@H]1CC[C@H](N)CC1 (racemic) [Compound 178, (trans)-N^1-((trans)-2-(E)-3-methyl-1-phenylbut-1-en-2-yl)cyclopropyl)cyclohexane-1,4-diamine Dihydrochloride]	< 0.1
CC(C)/C(=C\c1ccccc1)[C@@H]1C[C@H]1NC1CCN(Cc2ccc(C(=O)O)cc2)CC1 (racemic) [Compound 179, 4-((4-(((trans)-2-((E)-3-methyl-1-phenylbut-1-en-2-yl)cyclopropyl)amino)piperidin-1-yl)methyl)benzoic Acid bis(trifluoroacetic Acid) Salt]	< 0.1
C/C(=C\c1ccccc1)[C@@H]1C[C@H]1NC1CCN(CC(=O)O)CC1 (racemic) [Compound 194, 2-(4-(((trans)-2-((E)-1-phenylprop-1-en-2-yl)cyclopropyl)amino)piperidin-1-yl)acetic Acid Dihydrochloride]	< 0.1
C/C(=C\c1ccccc1)[C@@H]1C[C@H]1NC1CCN(CCC(=O)O)CC1 (racemic) [Compound 199, 3-(4-(((trans)-2-((E)-1-phenylprop-1-en-2-yl)cyclopropyl)amino)piperidin-1-yl)propanoic Acid Dihydrochloride]	< 0.1
C/C(=C\c1ccccc1)[C@@H]1C[C@H]1NC1CCN(Cc2ccc(C(=O)O)cn2)CC1 (racemic) [Compound 203, 6-((4-(((trans)-2-((E)-1-phenylprop-1-en-2-yl)cyclopropyl)amino)piperidin-1-yl)methyl)nicotinic Acid Dihydrochloride]	< 0.1
C/C(=C\c1ccccc1)[C@@H]1C[C@H]1NC1CCN(CCOCC(=O)O)CC1 (racemic) [Compound 204, 2-(2-(4-(((trans)-2-((E)-1-phenylprop-1-en-2-yl)cyclopropyl)amino)piperidin-1-yl)ethoxy)acetic Acid Dihydrochloride]	> 10
C/C(=C\c1ccccc1)[C@@H]1C[C@H]1NC1CCN(CCNS(C)(=O)=O)CC1 (racemic) [Compound 205, N-(2-(4-(((trans)-2-(E)-1-phenylprop-1-en-2-yl)cyclopropyl)amino)piperidin-1-yl)ethyl)methanesulfonamide Dihydrochloride]	< 0.1
CC/C(=C\c1ccccc1)[C@@H]1C[C@H]1NC1CCC(NCc2cnn(CC(=O)O)c2)CC1 (mixture of isomers) [Compound 210, 2-(4-(((4-(((trans)-2-((E)-1-phenylbut-1-en-2-yl)cyclopropyl)amino)cyclohexyl)amino)methyl)-1H-pyrazol-1-yl)acetic Acid Dihydrochloride]	0.1 to 1

Further lines, results first:

IC50 [µM]	SMILES
< 0.1	C/C(=C\c1ccccc1)[C@@H]1C[C@H]1NCC1CCN(CCC#N)CC1 (racemic) [Compound 135, 3-(4-((((trans)-2-((E)-1-phenylprop-1-en-2-yl)cyclopropyl)amino)methyl)piperidin-1-yl)propanenitrile dihydrochloride]
< 0.1	CNC(=O)c1ccc(CN2CCC(N[C@@H]3C[C@H]3/C(C)=C/c3ccccc3)CC2)cc1 (racemic) [Compound 136, N-methyl-4-((4-(((trans)-2-((E)-1-phenylprop-1-en-2-yl)cyclopropyl)amino)piperidin-1-yl)methyl)benzamide dihydrochloride]
< 0.1	C/C(=C\c1ccccc1)[C@@H]1C[C@H]1NC1CCN(Cc2ccc(C(N)=O)cc2)CC1 (racemic) [Compound 137, 4-((4-(((trans)-2-((E)-1-phenylprop-1-en-2-yl)cyclopropyl)amino)piperidin-1-yl)methyl)benzamide dihydrochloride]
< 0.1	CC/C(=C\c1ccccc1)[C@@H]1C[C@H]1NCC1CCN(Cc2ccc(C(=O)O)cc2)CC1 (racemic) [Compound 163, 4-((4-((((trans)-2-((E)-1-phenylbut-1-en-2-yl)cyclopropyl)amino)methyl)piperidin-1-yl)methyl)benzoic acid bis trifluoroacetic acid salt]
< 0.1	CC/C(=C\c1ccccc1)[C@@H]1C[C@H]1N[C@H]1CC[C@@H](N)CC1 (racemic) [Compound 168, (cis)-N^1-((trans)-2-((E)-1-phenylbut-1-en-2-yl)cyclopropyl)cyclohexane-1,4-diamine Dihydrochloride]
< 0.1	CC/C(=C\c1ccccc1)[C@@H]1C[C@H]1N[C@H]1CC[C@H](N)CC1 (racemic) [Compound 169, (trans)-N^1-((trans)-2-((E)-1-phenylbut-1-en-2-yl)cyclopropyl)cyclohexane-1,4-diamine Dihydrochloride]
< 0.1	C/C(=C\c1ccc(-c2cnn(C)c2)cc1)[C@@H]1C[C@H]1NC1CCNCC1 (racemic) [Compound 175]
< 0.1	CC/C(=C\c1ccccc1)[C@@H]1C[C@H]1N[C@H]1CC[C@H](NCC(=O)O)CC1 (racemic) [Compound 182, 2-(((trans)-4-(((trans)-2-((E)-1-phenylbut-1-en-2-yl)cyclopropyl)amino)cyclohexyl)amino)acetic acid]
< 0.1	CC/C(=C\c1ccccc1)[C@@H]1C[C@H]1N[C@H]1CC[C@@H](NCC(=O)O)CC1 (racemic) [Compound 183, 2-(((cis)-4-(((trans)-2-((E)-1-phenylbut-1-en-2-yl)cyclopropyl)amino)cyclohexyl)amino)acetic Acid]
< 0.1	COCC/C(=C\c1ccccc1)[C@@H]1C[C@H]1N[C@H]1CC[C@H](NCC(C)(C)C(=O)O)CC1 (racemic) [Compound 184, 3-(((trans)-4-(((trans)-2-((E)-4-methoxy-1-phenylbut-1-en-2-yl)cyclopropyl)amino)cyclohexyl)amino)-2,2-dimethylpropanoic Acid bis(trifluoroacetic Acid) Salt]
< 0.1	COCC/C(=C\c1ccccc1)[C@@H]1C[C@H]1NC1CCC(NCc2ccc(C(=O)O)nc2)CC1 (mixture of isomers) [Compound 185, 5-((((trans)-4-(((trans)-2-((E)-4-methoxy-1-phenylbut-1-en-2-yl)cyclopropyl)amino)cyclohexyl)amino)methyl)picolinic Acid bis(trifluoroacetic Acid) Salt]
< 0.1	C/C(=C\c1ccccc1)[C@@H]1C[C@H]1NC1CCN(CC(N)=O)CC1 (racemic) [Compound 196, 2-(4-(((trans)-2-((E)-1-phenylprop-1-en-2-yl)cyclopropyl)amino)piperidin-1-yl)acetamide Dihydrochloride]
< 0.1	C/C(=C\c1ccccc1)[C@@H]1C[C@H]1NC1CCN(CCC(=O)N(C)C)CC1 (racemic) [Compound 198, N,N-dimethyl-3-(4-(((trans)-2-((E)-1-phenylprop-1-en-2-yl)cyclopropyl)amino)piperidin-1-yl)propanamide Dihydrochloride]
< 0.1	C/C(=C\c1ccccc1)[C@@H]1C[C@H]1NC1CCN(Cc2ccc(C(=O)O)nc2)CC1 (racemic) [Compound 200, 5-((4-(((trans)-2-((E)-1-phenylprop-1-en-2-yl)cyclopropyl)amino)piperidin-1-yl)methyl)picolinic Acid Dihydrochloride]
< 0.1	C/C(=C\c1ccccc1)[C@@H]1C[C@H]1NC1CCN(CCO)CC1 (racemic) [Compound 201, 2-(4-(((trans)-2-((E)-1-phenylprop-1-en-2-yl)cyclopropyl)amino)piperidin-1-yl)ethan-1-ol Dihydrochloride]
0.1 to 1	C/C(=C\c1ccccc1)[C@@H]1C[C@H]1NC1CCN(CCc2ccc(C(=O)O)cc2)CC1 (racemic) [Compound 206, 4-(2-(4-(((trans)-2-((E)-1-phenylprop-1-en-2-yl)cyclopropyl)amino)piperidin-1-yl)ethyl)benzoic Acid Dihydrochloride]
